According to patent publication US12509474B2, “Inhibitors of complement factors and uses thereof” (Annexon, Inc., priority 2020, dated 2025):
Counter-ions that a name gives are not always drawn.

Biological target: T1, human C1s protein (Homo sapiens, UniProt P09871)
T1 construct: A104
T1 sequence (P09871 16-688): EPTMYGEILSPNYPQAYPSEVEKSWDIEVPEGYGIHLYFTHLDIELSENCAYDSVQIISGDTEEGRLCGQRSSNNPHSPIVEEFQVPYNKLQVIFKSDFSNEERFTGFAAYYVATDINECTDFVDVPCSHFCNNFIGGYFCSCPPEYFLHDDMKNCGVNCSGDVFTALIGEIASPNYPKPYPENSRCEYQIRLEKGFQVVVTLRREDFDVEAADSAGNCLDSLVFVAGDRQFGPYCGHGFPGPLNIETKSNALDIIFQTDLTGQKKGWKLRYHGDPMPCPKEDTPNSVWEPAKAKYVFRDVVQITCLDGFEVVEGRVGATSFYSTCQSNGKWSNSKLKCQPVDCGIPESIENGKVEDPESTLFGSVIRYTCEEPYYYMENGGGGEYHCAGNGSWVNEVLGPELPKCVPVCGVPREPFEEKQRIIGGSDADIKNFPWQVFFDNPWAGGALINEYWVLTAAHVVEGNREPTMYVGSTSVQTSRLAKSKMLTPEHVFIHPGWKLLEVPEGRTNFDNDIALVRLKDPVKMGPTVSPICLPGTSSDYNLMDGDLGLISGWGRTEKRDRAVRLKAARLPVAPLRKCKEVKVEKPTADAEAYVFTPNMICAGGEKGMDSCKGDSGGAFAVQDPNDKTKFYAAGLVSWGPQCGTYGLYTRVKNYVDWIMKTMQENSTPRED
Test: C1s enzymatic assay (hydrolysis of YLGR-Rh110-dPro)
Format: biochemical
Details: substrate YLGR-Rh110-dPro 20 μM, 15 min pre-incubation, 60 min RT, fluorescence; for IC50: read-out: hC1s pIC50 (converted)
Experimental: Compound Testing in the C1s Enzymatic Assay
The enzyme cleaves the substrate with the release of Rh110 which is highly fluorescent. C1s inhibitors prevent the hydrolysis of the substrate thus resulting in a decrease of the signal.
On the day of the experiment 0.1 mg/mL BSA (Sigma, B4287) is added fresh to the buffer. The test item stock solutions are serially diluted 1:3 or 1:4 or 1:5 with DMSO, 11-point curves, in a 384-well compound plate. Nafamostat concentration curve is always included in the assay plate as a reference control.
The high controls are prepared dispensing in 0.25 μL DMSO in column 23, rows AH or AP and low controls with 0.25 μL of 0.1 M Nafamostat. […] The YLGR-Rh110-dPro substrate is prepared as 2× of the final assay concentration of 20 μM. 1/well of 2× enzyme solution is dispensed and pre-incubated for 15 min with the compounds. The enzymatic reaction is then started with 5 μL/well of the 2× substrate solution.

IC50 [nM] | Compound | hC1s pIC50
2.14 | COc1cc(C(F)(F)F)c(-c2ccc3c(N)nnc(C)c3c2)cc1B(O)O [Example 63, [5-(1-amino-4-methylphthalazin-6-yl)-2-methoxy-4-(trifluoromethyl)phenyl]boronic Acid] | –
1.17 | Nc1nncc2cc(-c3cccc(B(O)O)c3)ccc12 [Example 1, [3-(1-aminophthalazine-6-yl)phenyl]boronic Acid] | –
1.45 | Nc1cnnc2cc(-c3cc(B(O)O)ccc3Oc3nccs3)ccc12 [Example 169, [3-(4-aminocinnolin-7-yl)-4-(1,3-thiazol-2-yloxy)phenyl]boronic Acid Formic Acid Salt] | –
15.1 | CC(C)CC(=O)Nc1ccc(B(O)O)cc1-c1ccc2c(N)cnnc2c1 [Example 64, [3-(4-aminocinnolin-7-yl)-4-(3-methylbutanamido)phenyl]boronic Acid Formic Acid Salt] | –
1.66 | Nc1cnnc2cc(-c3cc(B(O)O)ccc3Oc3ccc(F)cc3)ccc12 [Example 167, [3-(4-aminocinnolin-7-yl)-4-(4-fluorophenoxy)phenyl]boronic Acid Formic Acid Salt] | –
1.32 | Cc1nnc(N)c2ccc(-c3cc(B(O)O)ccc3C(F)(F)F)cc12 [Example 39, [3-(1-amino-4-methylphthalazin-6-yl)-4-(trifluoromethyl)phenyl]boronic Acid Formic Acid Salt] | –
3.39 | COc1c(-c2ccc3c(N)cnnc3c2)cc(B(O)O)cc1C1CCOCC1 [Example 58, [3-(4-aminocinnolin-7-yl)-4-methoxy-5-(oxan-4-yl)phenyl]boronic Acid] | –
7.41 | COc1cc2c(cc1-c1ccc3c(N)cnnc3c1)B(O)OCC2 [Example 46, 7-(1-hydroxy-6-methoxy-3,4-dihydro-2,1-benzoxazonin-7-yl)cinnolin-4-amine Trifluoroacetic Acid Salt] | –
4.57 | COc1cc(C(F)(F)F)c(B(O)O)cc1-c1ccc2c(N)cnnc2c1 [Example 83, [5-(4-aminocinnolin-7-yl)-4-methoxy-2-(trifluoromethyl)phenyl]boronic Acid] | –
5.5 | Nc1nncc2cc(-c3cc(B(O)O)ccc3NC(=O)c3ccccc3Cl)ccc12 [Example 18, [3-(1-aminophthalazin-6-yl)-4-[(2-chlorobenzoyl)amino]phenyl]boronic Acid Formic Acid Salt] | –
50.1 | Nc1cnnc2cc(-c3cc(B(O)O)ccc3N3CCCC3)ccc12 [Example 150, [3-(4-aminocinnolin-7-yl)-4-(pyrrolidin-1-yl)phenyl]boronic Acid Formic Acid Salt] | –
28.8 | Cc1nnc(N)c2ccc(-c3cc(B(O)O)ccc3P(C)(C)=O)cc12 [Example 62, [3-(1-amino-4-methylphthalazin-6-yl)-4-dimethylphosphorylphenyl]boronic Acid Formic Acid Salt] | –

More lines, now with the values behind:

Compound | IC50 [nM] | hC1s pIC50
Nc1cnnc2cc(-c3cc(B(O)O)ccc3OCc3cnsc3)ccc12 [Example 98, [3-(4-aminocinnolin-7-yl)-4-[(1,2-thiazol-4-yl)methoxy]phenyl]boronic Acid] | 0.871 | –
CS(=O)(=O)c1ccc(B(O)O)cc1-c1ccc2c(N)cnnc2c1 [Example 164, [3-(4-aminocinnolin-7-yl)-4-methylsulfonylphenyl]boronic acid formic acid salt] | 12.6 | –
Nc1nnc(C2CC2)c2cc(-c3cccc(B(O)O)c3)ccc12 [Example 11, [3-(1-amino-4-cyclopropylphthalazin-6-yl)phenyl]boronic Acid Formic Acid Salt] | 214 | –
COc1ccc(B(O)O)cc1-c1ccc2ccnnc2c1 [Example 80, [3-(cinnolin-7-yl)-4-methoxyphenyl]boronic Acid] | 617 | –
COc1ncc(B(O)O)cc1-c1ccc2c(N)nnc(C)c2c1 [Example 30, [5-(1-amino-4-methylphthalazin-6-yl)-6-methoxypyridin-3-yl]boronic Acid] | 2.04 | –
Nc1cnnc2cc(-c3cc(B(O)O)ccc3OC(F)C(F)(F)F)ccc12 (centres unmarked) [Example 106, [3-(4-aminocinnolin-7-yl)-4-(1,2,2,2-tetrafluoroethoxy)phenyl]boronic Acid] | 1.02 | –
Nc1cnnc2cc(-c3cc(B(O)O)ccc3OC[C@@H]3CC(F)(F)CN3)ccc12 [Example 79, [3-(4-aminocinnolin-7-yl)-4-[[(2S)-4,4-difluoropyrrolidin-2-yl]methoxy]phenyl]boronic acid] | 0.891 | –
Nc1cnnc2cc(-c3cc(B(O)O)ccc3OC(F)(F)C(F)F)ccc12 [Example 105, [3-(4-aminocinnolin-7-yl)-4-(1,1,2,2-tetrafluoroethoxy)phenyl]boronic Acid] | 1.12 | –
Nc1cnnc2cc(-c3cc(B(O)O)ccc3N3CCOCC3)ccc12 [Example 143, [3-(4-aminocinnolin-7-yl)-4-(morpholin-4-yl)phenyl]boronic Acid Formic Acid Salt] | 57.5 | –
Nc1cnnc2cc(-c3ccc(C(F)(F)F)c(B(O)O)c3)ccc12 [Example 88, [5-(4-aminocinnolin-7-yl)-2-(trifluoromethyl)phenyl]boronic Acid] | 5.75 | –
COCc1cc(OC)c(-c2ccc3c(N)cnnc3c2)cc1B(O)O [Example 137, [5-(4-aminocinnolin-7-yl)-4-methoxy-2-(methoxymethyl)phenyl]boronic Acid Formic Acid Salt] | 2.82 | –
Cc1nnc(N)c2ccc(-c3ccc4c(c3)B(O)OC(C)C4)cc12 (single isomer, unassigned) [Example 73, 6-(1-hydroxy-3-methyl-3,4-dihydro-2,1-benzoxazonin-7-yl)-4-methylphthalazin-1-amine] | 0.912 | –
7-(1-hydroxy-3-prop-2-enyl-3,4-dihydro-2,1-benzoxazonin-7-yl)cinnolin-4-amine [Example 148] | – | 8.64
COc1cc(Cl)c(B(O)O)cc1-c1ccc2c(N)nnc(C)c2c1 [Example 50, [5-(1-amino-4-methylphthalazin-6-yl)-2-chloro-4-methoxyphenyl]boronic Acid] | 0.891 | –
COc1ccc(B(O)O)cc1-c1cnc2cnccc2c1 [Example 139, [4-methoxy-3-(1,7-naphthyridin-3-yl)phenyl]boronic Acid] | > 25100 | –
CC1(C)Cc2cc(B(O)O)cc(-c3ccc4c(N)cnnc4c3)c2O1 [Example 170, [7-(4-aminocinnolin-7-yl)-2,2-dimethyl-2,3-dihydro-1-benzofuran-5-yl]boronic Acid Formic Acid Salt] | 1.07 | –
COc1c(-c2ccc3c(N)nnc(C)c3c2)cc(B(O)O)cc1C(F)(F)F [Example 49, [3-(1-amino-4-methylphthalazin-6-yl)-4-methoxy-5-(trifluoromethyl)phenyl]boronic Acid] | 1.91 | –
Cc1nnc(N)c2ccc(-c3ccc(NC(=O)c4ccccc4)c(B(O)O)c3)cc12 [Example 70, [5-(1-amino-4-methylphthalazin-6-yl)-2-benzamidophenyl]boronic Acid] | 3.8 | –
CC(C)C1Cc2ccc(-c3ccc4c(N)cnnc4c3)cc2B(O)O1 (single isomer, unassigned) [Example 153] | 1.66 | –
COc1ccc(B(O)O)c(F)c1-c1ccc2c(N)cnnc2c1 [Example 48, [3-(4-aminocinnolin-7-yl)-2-fluoro-4-methoxyphenyl]boronic Acid] | 4.07 | –
Cc1nnc(N)c2ccc(-c3cc(B(O)O)ccc3F)cc12 [Example 19, [3-(1-amino-4-methylphthalazin-6-yl)-4-fluorophenyl]boronic acid formic acid salt] | 1.35 | –
COc1ccc(B(O)O)cc1-c1cnc2c(N)nccc2c1 [Example 130, [3-(8-amino-1,7-naphthyridin-3-yl)-4-methoxyphenyl]boronic Acid Formic Acid Salt] | 67.6 | –
COc1cc(C2CC2)c(B(O)O)cc1-c1ccc2c(N)nnc(C)c2c1 [Example 43, [5-(1-amino-4-methylphthalazin-6-yl)-2-cyclopropyl-4-methoxyphenyl]boronic Acid] | 1 | –
Cc1nnc(N)c2ccc(-c3cc(B(O)O)cc(C(F)(F)F)c3)cc12 [Example 38] | 1.05 | –
Cc1nnc(N)c2ccc(-c3cncc(B(O)O)c3)cc12 [Example 17, [5-(1-amino-4-methylphthalazin-6-yl)pyridin-3-yl]boronic Acid] | 1.74 | –
Nc1cnnc2cc(-c3cc(B(O)O)ccc3OCC3(C(F)(F)F)CC3)ccc12 [Example 91, [3-(4-aminocinnolin-7-yl)-4-{[1-(trifluoromethyl)cyclopropyl]methoxy}phenyl]boronic Acid] | 1.62 | –
